System: 633275-114-R-J1-PDC complex spheroids, viability
Assay: Anticancer human tumor 633275-114-R-J1-PDC patient-derived endometrial adenocarcinoma cell line growth inhibition [GQUAD]
Details: for IC50: curve of first compound; for viability, T/C: stronger effect = lower value
Procedure, shortened: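 Multi-cell-type spheroids of tumor cells with HUVEC and mesenchymal stem cells, treated with drug combinations. Concentrations descend in half-log steps from near clinical Cmax, or from 10 microM where Cmax is unknown; viability read-out.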

[1] = second compound 0.0316 µM, first compound 0.0316 µM
[2] = second compound 0.0316 µM, first compound 0.316 µM
[3] = second compound 0.1 µM, first compound 0.0316 µM
[4] = second compound 0.1 µM, first compound 0.316 µM
[5] = second compound 0.316 µM, first compound 0.0316 µM
[6] = second compound 0.316 µM, first compound 0.316 µM
[7] = second compound 1 µM, first compound 0.0316 µM
[8] = second compound 1 µM, first compound 0.316 µM
[9] = second compound 3.16 µM, first compound 0.0316 µM
[10] = second compound 3.16 µM, first compound 0.316 µM
[11] = second compound 10 µM, first compound 0.0316 µM
[12] = second compound 10 µM, first compound 0.316 µM
[13] = second compound 0.0316 µM, first compound 0.1 µM
[14] = second compound 0.0316 µM, first compound 1 µM
[15] = second compound 0.0316 µM, first compound 3.16 µM
[16] = second compound 0.0316 µM, first compound 10 µM
[17] = second compound 0.1 µM, first compound 0.1 µM
[18] = second compound 0.1 µM, first compound 1 µM
[19] = second compound 0.1 µM, first compound 3.16 µM
[20] = second compound 0.1 µM, first compound 10 µM
[21] = second compound 0.316 µM, first compound 0.1 µM
[22] = second compound 0.316 µM, first compound 1 µM
[23] = second compound 0.316 µM, first compound 3.16 µM
[24] = second compound 0.316 µM, first compound 10 µM
[25] = second compound 1 µM, first compound 0.1 µM
[26] = second compound 1 µM, first compound 1 µM
[27] = second compound 1 µM, first compound 3.16 µM
[28] = second compound 1 µM, first compound 10 µM
[29] = second compound 3.16 µM, first compound 0.1 µM
[30] = second compound 3.16 µM, first compound 1 µM
[31] = second compound 3.16 µM, first compound 3.16 µM
[32] = second compound 3.16 µM, first compound 10 µM
[33] = second compound 10 µM, first compound 0.1 µM
[34] = second compound 10 µM, first compound 1 µM
[35] = second compound 10 µM, first compound 3.16 µM
[36] = second compound 10 µM, first compound 10 µM
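Note: spheroids exposed to the agents for seven days.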
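Throughout, for viability, T/C: percent of DMSO vehicle control viability which is 100%.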

Cc1[nH]c2ccccc2c1CCNCc1ccc(/C=C/C(=O)NO)cc1 + Cc1cnc(CNC(=O)c2c(=O)c3ccc(N4CCCN(C)CC4)nc3n3c2sc2ccccc23)cn1
IC50 (second compound 0.0316 µM): 13 nM
IC50 (second compound 0.1 µM): 3.49 nM
IC50 (second compound 0.316 µM): < 0.999 nM
IC50 (second compound 1 µM): < 0.999 nM
IC50 (second compound 3.16 µM): < 0.999 nM
IC50 (second compound 10 µM): < 0.999 nM
viability, T/C (second compound 0.0316 µM, first compound 0.000999 µM): 65.8%
viability, T/C (second compound 0.0316 µM, first compound 0.00316 µM): 59.5%
viability, T/C (second compound 0.0316 µM, first compound 0.00999 µM): 52.6%
viability, T/C [1]: 41.3%
viability, T/C (second compound 0.0316 µM, first compound 0.0999 µM): 32%
viability, T/C [2]: 16.2%
viability, T/C (second compound 0.1 µM, first compound 0.000999 µM): 56.1%
viability, T/C (second compound 0.1 µM, first compound 0.00316 µM): 48%
viability, T/C (second compound 0.1 µM, first compound 0.00999 µM): 45.2%
viability, T/C [3]: 38%
viability, T/C (second compound 0.1 µM, first compound 0.0999 µM): 25.4%
viability, T/C [4]: 15.1%
viability, T/C (second compound 0.316 µM, first compound 0.000999 µM): 50.4%
viability, T/C (second compound 0.316 µM, first compound 0.00316 µM): 40.7%
viability, T/C (second compound 0.316 µM, first compound 0.00999 µM): 37.5%
viability, T/C [5]: 30.9%
viability, T/C (second compound 0.316 µM, first compound 0.0999 µM): 21.7%
viability, T/C [6]: 9.86%
viability, T/C (second compound 1 µM, first compound 0.000999 µM): 44.3%
viability, T/C (second compound 1 µM, first compound 0.00316 µM): 38.2%
viability, T/C (second compound 1 µM, first compound 0.00999 µM): 34.8%
viability, T/C [7]: 33.1%
viability, T/C (second compound 1 µM, first compound 0.0999 µM): 21.4%
viability, T/C [8]: 8.16%
viability, T/C (second compound 3.16 µM, first compound 0.000999 µM): 38.3%
viability, T/C (second compound 3.16 µM, first compound 0.00316 µM): 32.1%
viability, T/C (second compound 3.16 µM, first compound 0.00999 µM): 31.9%
viability, T/C [9]: 27.7%
viability, T/C (second compound 3.16 µM, first compound 0.0999 µM): 16.6%
viability, T/C [10]: 0.13%
viability, T/C (second compound 10 µM, first compound 0.000999 µM): 27.3%
viability, T/C (second compound 10 µM, first compound 0.00316 µM): 31.2%
viability, T/C (second compound 10 µM, first compound 0.00999 µM): 27.7%
viability, T/C [11]: 24.8%
viability, T/C (second compound 10 µM, first compound 0.0999 µM): 16.5%
viability, T/C [12]: 0.21%

COc1ccc([C@@H](O)c2cc(-c3ncnc4cc(N5CCOCC5)ccc34)c(F)cc2Cl)nn1 + Cc1[nH]c2ccc(F)cc2c1-c1nc2c3cccnc3c3ncccc3c2[nH]1
IC50 (second compound 0.0316 µM): 4910 nM
IC50 (second compound 0.1 µM): 3710 nM
IC50 (second compound 0.316 µM): 2910 nM
IC50 (second compound 1 µM): 3150 nM
IC50 (second compound 3.16 µM): 1880 nM
IC50 (second compound 10 µM): 1410 nM
viability, T/C [1]: 107%
viability, T/C [13]: 91%
viability, T/C [2]: 82.9%
viability, T/C [14]: 72.5%
viability, T/C [15]: 58%
viability, T/C [16]: 38.5%
viability, T/C [3]: 96.8%
viability, T/C [17]: 99.8%
viability, T/C [4]: 87.5%
viability, T/C [18]: 66.5%
viability, T/C [19]: 54.8%
viability, T/C [20]: 39.7%
viability, T/C [5]: 89.5%
viability, T/C [21]: 96.8%
viability, T/C [6]: 88.9%
viability, T/C [22]: 69.2%
viability, T/C [23]: 50.2%
viability, T/C [24]: 35.1%
viability, T/C [7]: 83.8%
viability, T/C [25]: 90.5%
viability, T/C [8]: 85.4%
viability, T/C [26]: 69.9%
viability, T/C [27]: 51.1%
viability, T/C [28]: 33.9%
viability, T/C [9]: 71.3%
viability, T/C [29]: 68.3%
viability, T/C [10]: 63.2%
viability, T/C [30]: 56.8%
viability, T/C [31]: 44.7%
viability, T/C [32]: 29.7%
viability, T/C [11]: 70.3%
viability, T/C [33]: 69.3%
viability, T/C [12]: 70.6%
viability, T/C [34]: 51.3%
viability, T/C [35]: 42.3%
viability, T/C [36]: 31.6%

CC(C)(O)C1CCC(Nc2ccc3ncc(-c4cccc(C(F)(F)F)c4)n3n2)CC1 (stereo not drawn) + Cc1cnc(CNC(=O)c2c(=O)c3ccc(N4CCCN(C)CC4)nc3n3c2sc2ccccc23)cn1
IC50 (second compound 0.0316 µM): 886 nM
IC50 (second compound 0.1 µM): < 31.6 nM
IC50 (second compound 0.316 µM): < 31.6 nM
IC50 (second compound 1 µM): < 31.6 nM
IC50 (second compound 3.16 µM): < 31.6 nM
IC50 (second compound 10 µM): < 31.6 nM
viability, T/C [1]: 64.2%
viability, T/C [13]: 66.3%
viability, T/C [2]: 64.7%
viability, T/C [14]: 48.2%
viability, T/C [15]: 22.2%
viability, T/C [16]: 32.5%
viability, T/C [3]: 52.1%
viability, T/C [17]: 52.7%
viability, T/C [4]: 44.5%
viability, T/C [18]: 39.9%
viability, T/C [19]: 19.4%
viability, T/C [20]: 26.1%
viability, T/C [5]: 46.1%
viability, T/C [21]: 42.3%
viability, T/C [6]: 45.5%
viability, T/C [22]: 35.8%
viability, T/C [23]: 18.6%
viability, T/C [24]: 22.3%
viability, T/C [7]: 43.8%
viability, T/C [25]: 43.5%
viability, T/C [8]: 42.6%
viability, T/C [26]: 34.6%
viability, T/C [27]: 16.5%
viability, T/C [28]: 19.8%
viability, T/C [9]: 38.3%
viability, T/C [29]: 40.4%
viability, T/C [10]: 39.7%
viability, T/C [30]: 28%
viability, T/C [31]: 0.11%
viability, T/C [32]: 7.92%
viability, T/C [11]: 30.7%
viability, T/C [33]: 33.9%
viability, T/C [12]: 30.4%
viability, T/C [34]: 15.6%
viability, T/C [35]: 0.2%
viability, T/C [36]: 0.19%

COc1ccc([C@@H](O)c2cc(-c3ncnc4cc(N5CCOCC5)ccc34)c(F)cc2Cl)nn1 + Cc1cnc(CNC(=O)c2c(=O)c3ccc(N4CCCN(C)CC4)nc3n3c2sc2ccccc23)cn1
IC50 (second compound 0.0316 µM): 179 nM
IC50 (second compound 0.1 µM): 60.3 nM
IC50 (second compound 0.316 µM): < 31.6 nM
IC50 (second compound 1 µM): < 31.6 nM
IC50 (second compound 3.16 µM): < 31.6 nM
IC50 (second compound 10 µM): < 31.6 nM
viability, T/C [1]: 59.8%
viability, T/C [13]: 60.3%
viability, T/C [2]: 40.9%
viability, T/C [14]: 29.2%
viability, T/C [15]: 19.2%
viability, T/C [16]: 12.2%
viability, T/C [3]: 51.5%
viability, T/C [17]: 50.5%
viability, T/C [4]: 36.1%
viability, T/C [18]: 25%
viability, T/C [19]: 18.8%
viability, T/C [20]: 11.2%
viability, T/C [5]: 48.6%
viability, T/C [21]: 45.7%
viability, T/C [6]: 30.1%
viability, T/C [22]: 24.9%
viability, T/C [23]: 20.6%
viability, T/C [24]: 11.9%
viability, T/C [7]: 40.2%
viability, T/C [25]: 37.9%
viability, T/C [8]: 28.4%
viability, T/C [26]: 24.6%
viability, T/C [27]: 18.1%
viability, T/C [28]: 11.1%
viability, T/C [9]: 34%
viability, T/C [29]: 29.4%
viability, T/C [10]: 27.6%
viability, T/C [30]: 21.8%
viability, T/C [31]: 18.7%
viability, T/C [32]: 11.5%
viability, T/C [11]: 30.8%
viability, T/C [33]: 27.5%
viability, T/C [12]: 28.6%
viability, T/C [34]: 19.9%
viability, T/C [35]: 16%
viability, T/C [36]: 3.93%

Reference: PubChem BioAssay AID2060505 (Molecular Pharmacology Branch, DTP, NCI, 2025)
